Drawing on paper PMC12379584, “Characterization of the ligand binding pocket of the virulence regulator Rns, a member of the AraC/XylS family of transcription factors” (mSphere, 2025), this text covers IC50 for 1 compound.

Each structure is given as a SMILES string. Some results are limits rather than exact numbers.

Assay [1] has as its target T1, MBP-Rns (Escherichia coli, UniProt P16114).
T1 construct: full-length codon-optimized Rns with N-terminal MBP solubility tag kept (pMBPRnsOPT2, pMalC2), expressed in E. coli BL21, MBPTrap and heparin columns
As to the kind of experiment: EMSA, inhibition of DNA binding. In kind it is biochemical.

Assay [2] has as its target MBP-Rns (Escherichia coli, UniProt P16114, H20A). Nature of the assay: biochemical.
Assay [3] deals with MBP-Rns (Escherichia coli, UniProt P16114, R75A). As to the kind of experiment: biochemical.
Assay [4] concerns the target MBP-Rns (Escherichia coli, UniProt P16114, I14F/I17F). As to the kind of experiment: biochemical.

As to `CCCCCCCCCC(=O)O` [decanoic acid], the IC50 (commonly the concentration that inhibits the measured activity by half) on MBP-Rns [1] is 1.15 mM; against MBP-Rns [2] it was over 10 mM; against MBP-Rns [3], over 10 mM; at MBP-Rns [4], over 10 mM.
